Activity calls are given as the source filed them.
Experiments:
[1] = target: T1, Tyrosine-protein phosphatase non-receptor type 7 (Homo sapiens, UniProt P35236); experiment: inhibitors of human HePTP phosphatase, […], biochemical, absorbance, leukemia target (AID 521); format: functional
T1 sequence (P35236 whole entry): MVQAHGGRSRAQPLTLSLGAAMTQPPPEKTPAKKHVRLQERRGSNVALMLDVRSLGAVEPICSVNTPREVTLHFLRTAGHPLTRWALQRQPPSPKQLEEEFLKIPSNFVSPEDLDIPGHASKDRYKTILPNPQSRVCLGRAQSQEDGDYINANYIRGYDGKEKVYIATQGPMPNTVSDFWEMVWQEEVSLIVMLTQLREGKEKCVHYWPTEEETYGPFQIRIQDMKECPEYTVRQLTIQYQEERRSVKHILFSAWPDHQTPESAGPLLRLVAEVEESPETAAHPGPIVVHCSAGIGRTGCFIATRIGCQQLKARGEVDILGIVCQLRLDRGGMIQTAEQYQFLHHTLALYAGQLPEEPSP

[2] = target: Voltage-gated inwardly rectifying potassium channel KCNH2 (Homo sapiens, UniProt Q12809); experiment: hERG protection from proarrhythmic block, potency, dose response, cell-based, thallium flux (AID 2121); format: ADME
[3] = Luminescence Cell-Based Dose Response to Identify Activators of 5'UTR Stem-Loop Driven Prion Protein mRNA Translation in H4-C Neuroglioblastoma Cells. [Related pubchem assays: 1829 (Project Summary), 1814 (Primary HTS)]; format: functional
[4] = Luminescence Cell-Based Dose Response HTS to Identify Activators of Luciferase Translation or Activity in H4 […] Cells. [Related pubchem assays: 1829 (Project Summary), 1814 (Primary HTS)]; format: functional
[5] = tested on: H4; experiment: Luminescence Cell-Based Dose Response HTS to Identify Activators of 5'UTR Stem-Loop Driven Prion Protein mRNA Translation in H4 Neuroglioblastoma Cells. [Related pubchem assays: 1829 (Project Summary), 1814 (Primary HTS)]; format: functional; details: Homo sapiens
[6] = Luminescence Cell-Based Dose Response to Identify Activators of Luciferase Translation or Activity in H4-C Neuroglioblastoma Cells. [Related pubchem assays: 1829 (Project Summary), 1814 (Primary HTS)]; format: functional
[7] = Luminescence Cell-Based Dose Confirmation to Identify Activators of 5'UTR Stem-Loop Driven Alpha-Synuclein mRNA Translation in H4 Neuroglioblastoma Cells. [Related pubchem assays: 1829 (Project Summary), 1814 (Primary HTS)]; format: functional
[8] = tested on: Danio rerio; experiment: In Vivo Angiogenesis Dose-Response Confirmation. [Related pubchem assays: 732 (Assay preceding this confirmatory assay.)]; format: functional, organism-based
[9] = target: Sphingosine 1-phosphate receptor 2 (Homo sapiens, UniProt O95136); experiment: Dose Response Cell Based Assay for Agonists of the S1P2 Receptor of Purchased Analogues. [Related pubchem assays: 729, 843, 854, 736 ]; format: functional
[10] = target: Ubiquitin carboxyl-terminal hydrolase BAP1 (Homo sapiens, UniProt Q92560); experiment: BAP1 deubiquitinase inhibitors, dose response, biochemical (AID 714); format: functional
[11] = target: Voltage-dependent T-type calcium channel subunit alpha-1H (Homo sapiens, UniProt O95180); format: functional;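 also: channel activity triggered by adding a high calcium stimulation buffer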
Chain of Voltage-dependent T-type calcium channel subunit alpha-1H (O95180 whole entry): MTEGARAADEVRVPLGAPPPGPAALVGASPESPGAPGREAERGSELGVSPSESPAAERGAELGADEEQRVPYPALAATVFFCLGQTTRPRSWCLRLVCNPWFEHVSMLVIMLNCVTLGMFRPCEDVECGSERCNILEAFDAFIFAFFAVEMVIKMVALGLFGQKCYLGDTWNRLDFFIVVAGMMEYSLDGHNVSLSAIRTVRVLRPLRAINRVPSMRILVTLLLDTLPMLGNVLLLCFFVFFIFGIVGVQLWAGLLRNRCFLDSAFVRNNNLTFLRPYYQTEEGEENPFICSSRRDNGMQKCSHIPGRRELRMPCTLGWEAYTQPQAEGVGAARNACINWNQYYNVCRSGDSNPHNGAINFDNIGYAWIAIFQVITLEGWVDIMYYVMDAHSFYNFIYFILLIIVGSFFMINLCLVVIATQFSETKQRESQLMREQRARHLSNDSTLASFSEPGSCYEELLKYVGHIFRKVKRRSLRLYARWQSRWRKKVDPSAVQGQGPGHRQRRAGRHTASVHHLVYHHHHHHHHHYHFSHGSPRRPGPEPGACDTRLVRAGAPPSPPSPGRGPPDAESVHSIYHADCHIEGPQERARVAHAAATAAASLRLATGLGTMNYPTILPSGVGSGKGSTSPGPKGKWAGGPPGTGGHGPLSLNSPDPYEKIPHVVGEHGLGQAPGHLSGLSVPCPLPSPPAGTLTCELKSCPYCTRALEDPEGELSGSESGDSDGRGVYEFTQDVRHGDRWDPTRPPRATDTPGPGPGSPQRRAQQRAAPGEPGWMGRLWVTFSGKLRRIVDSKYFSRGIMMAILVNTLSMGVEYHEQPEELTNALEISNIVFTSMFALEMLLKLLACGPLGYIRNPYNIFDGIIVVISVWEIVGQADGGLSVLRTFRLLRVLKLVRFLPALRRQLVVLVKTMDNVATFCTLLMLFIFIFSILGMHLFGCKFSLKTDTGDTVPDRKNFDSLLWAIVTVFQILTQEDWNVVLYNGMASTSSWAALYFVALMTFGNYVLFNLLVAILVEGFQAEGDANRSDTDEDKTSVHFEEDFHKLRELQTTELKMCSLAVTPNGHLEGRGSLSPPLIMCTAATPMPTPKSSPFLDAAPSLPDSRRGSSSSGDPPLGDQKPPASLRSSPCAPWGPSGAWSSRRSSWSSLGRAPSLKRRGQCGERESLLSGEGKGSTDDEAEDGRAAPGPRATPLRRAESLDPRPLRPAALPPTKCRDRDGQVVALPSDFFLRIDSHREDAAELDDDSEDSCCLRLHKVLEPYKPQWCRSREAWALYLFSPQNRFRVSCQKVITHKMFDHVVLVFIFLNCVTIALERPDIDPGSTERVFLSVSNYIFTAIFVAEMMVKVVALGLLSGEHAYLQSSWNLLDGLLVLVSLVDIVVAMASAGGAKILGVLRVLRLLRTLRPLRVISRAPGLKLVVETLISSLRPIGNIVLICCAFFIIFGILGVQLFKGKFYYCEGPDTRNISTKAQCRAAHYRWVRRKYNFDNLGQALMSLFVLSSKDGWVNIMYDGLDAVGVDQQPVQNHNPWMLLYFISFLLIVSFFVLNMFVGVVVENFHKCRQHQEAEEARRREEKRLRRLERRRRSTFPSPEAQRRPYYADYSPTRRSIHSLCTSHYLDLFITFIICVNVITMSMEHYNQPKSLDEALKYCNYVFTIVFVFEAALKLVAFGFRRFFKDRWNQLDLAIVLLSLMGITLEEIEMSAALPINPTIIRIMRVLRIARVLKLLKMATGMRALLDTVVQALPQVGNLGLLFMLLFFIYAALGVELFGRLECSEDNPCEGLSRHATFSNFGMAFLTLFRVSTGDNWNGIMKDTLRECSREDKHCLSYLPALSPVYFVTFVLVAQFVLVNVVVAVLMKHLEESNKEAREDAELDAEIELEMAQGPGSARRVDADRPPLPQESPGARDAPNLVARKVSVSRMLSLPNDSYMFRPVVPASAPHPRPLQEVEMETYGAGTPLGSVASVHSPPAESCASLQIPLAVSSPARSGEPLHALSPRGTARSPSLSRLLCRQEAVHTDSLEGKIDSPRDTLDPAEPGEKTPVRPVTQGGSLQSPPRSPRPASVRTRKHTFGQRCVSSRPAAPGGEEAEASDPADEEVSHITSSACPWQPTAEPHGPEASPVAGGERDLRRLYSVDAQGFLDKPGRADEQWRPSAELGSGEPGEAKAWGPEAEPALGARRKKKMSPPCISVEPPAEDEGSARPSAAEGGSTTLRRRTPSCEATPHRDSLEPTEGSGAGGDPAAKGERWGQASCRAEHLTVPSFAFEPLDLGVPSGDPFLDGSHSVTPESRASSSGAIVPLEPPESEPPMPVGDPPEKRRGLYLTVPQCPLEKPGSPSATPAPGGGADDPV

Chain of Voltage-gated inwardly rectifying potassium channel KCNH2 (Q12809 whole entry): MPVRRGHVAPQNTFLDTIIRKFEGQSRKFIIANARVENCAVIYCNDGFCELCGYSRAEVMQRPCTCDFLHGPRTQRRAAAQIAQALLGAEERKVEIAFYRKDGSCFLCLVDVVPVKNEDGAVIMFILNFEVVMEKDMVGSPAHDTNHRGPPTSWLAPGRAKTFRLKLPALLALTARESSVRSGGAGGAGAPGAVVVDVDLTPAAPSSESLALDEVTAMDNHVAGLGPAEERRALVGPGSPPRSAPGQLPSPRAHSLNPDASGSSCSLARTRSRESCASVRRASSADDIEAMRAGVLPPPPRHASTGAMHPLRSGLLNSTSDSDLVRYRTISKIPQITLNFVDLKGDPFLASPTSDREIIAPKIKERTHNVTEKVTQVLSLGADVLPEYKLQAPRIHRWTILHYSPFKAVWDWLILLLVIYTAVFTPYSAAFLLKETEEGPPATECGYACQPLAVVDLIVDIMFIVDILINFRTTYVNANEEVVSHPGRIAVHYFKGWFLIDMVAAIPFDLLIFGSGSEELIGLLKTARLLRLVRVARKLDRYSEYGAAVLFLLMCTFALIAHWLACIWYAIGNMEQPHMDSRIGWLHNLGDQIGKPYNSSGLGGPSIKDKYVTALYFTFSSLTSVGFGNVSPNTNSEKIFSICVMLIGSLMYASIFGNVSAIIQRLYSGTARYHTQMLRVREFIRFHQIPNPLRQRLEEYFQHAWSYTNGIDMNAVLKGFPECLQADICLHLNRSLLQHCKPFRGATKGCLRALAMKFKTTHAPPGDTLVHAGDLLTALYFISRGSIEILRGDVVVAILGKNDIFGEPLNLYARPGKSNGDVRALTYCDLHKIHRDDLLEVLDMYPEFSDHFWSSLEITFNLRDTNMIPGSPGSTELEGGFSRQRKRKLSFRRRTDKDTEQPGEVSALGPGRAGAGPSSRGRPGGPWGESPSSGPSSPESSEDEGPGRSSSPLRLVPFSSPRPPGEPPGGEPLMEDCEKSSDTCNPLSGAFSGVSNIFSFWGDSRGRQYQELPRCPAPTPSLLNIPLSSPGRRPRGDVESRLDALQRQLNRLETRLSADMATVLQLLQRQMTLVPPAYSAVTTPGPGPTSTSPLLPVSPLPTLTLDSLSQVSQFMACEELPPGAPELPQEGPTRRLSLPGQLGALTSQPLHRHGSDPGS
Chain of Ubiquitin carboxyl-terminal hydrolase BAP1 (Q92560 whole entry): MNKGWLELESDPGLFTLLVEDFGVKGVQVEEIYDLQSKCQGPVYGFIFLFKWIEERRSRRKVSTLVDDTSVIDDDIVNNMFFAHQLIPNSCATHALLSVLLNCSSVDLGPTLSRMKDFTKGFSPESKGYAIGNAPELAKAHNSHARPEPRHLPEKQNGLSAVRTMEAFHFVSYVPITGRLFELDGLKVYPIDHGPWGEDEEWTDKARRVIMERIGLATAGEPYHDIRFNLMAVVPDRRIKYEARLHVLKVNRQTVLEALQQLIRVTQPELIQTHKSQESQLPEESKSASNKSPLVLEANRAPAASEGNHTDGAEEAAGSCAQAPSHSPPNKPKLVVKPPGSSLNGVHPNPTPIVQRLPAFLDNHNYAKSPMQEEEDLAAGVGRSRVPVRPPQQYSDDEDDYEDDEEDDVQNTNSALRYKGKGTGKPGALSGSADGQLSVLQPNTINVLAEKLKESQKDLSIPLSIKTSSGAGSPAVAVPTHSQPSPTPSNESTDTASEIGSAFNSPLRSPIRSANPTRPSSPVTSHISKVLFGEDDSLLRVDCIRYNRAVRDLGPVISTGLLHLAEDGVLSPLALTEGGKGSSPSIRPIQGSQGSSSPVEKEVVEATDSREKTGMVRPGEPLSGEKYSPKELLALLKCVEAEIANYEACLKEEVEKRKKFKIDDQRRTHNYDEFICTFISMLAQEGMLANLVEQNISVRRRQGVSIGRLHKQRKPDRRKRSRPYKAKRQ
Chain of Sphingosine 1-phosphate receptor 2 (O95136 whole entry): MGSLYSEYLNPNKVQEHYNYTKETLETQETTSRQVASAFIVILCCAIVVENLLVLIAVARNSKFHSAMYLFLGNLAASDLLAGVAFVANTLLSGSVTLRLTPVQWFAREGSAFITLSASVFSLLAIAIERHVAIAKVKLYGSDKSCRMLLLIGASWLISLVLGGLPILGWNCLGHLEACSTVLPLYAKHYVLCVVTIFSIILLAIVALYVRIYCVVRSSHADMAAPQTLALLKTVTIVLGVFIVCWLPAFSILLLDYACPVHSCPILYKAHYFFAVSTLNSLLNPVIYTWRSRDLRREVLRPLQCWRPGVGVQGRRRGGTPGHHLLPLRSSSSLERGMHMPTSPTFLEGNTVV

Question: With `Cc1nc2c(o1)CCc1ccccc1C2O` (stereo unspecified) as the compound, how does the IC50 [1] read?
Answer: > 100 µM (not active)

Question: Which EC50 [2] does the source give for `CCc1ccc2nc(NC(=O)c3cc(C)on3)sc2c1` here?
Answer: 11.6 µM (active)

Question: For `Cc1ccsc1C1NC(=O)c2c(sc3c2CCCC3)N1` (stereo unspecified), which EC50 [3] is on record?
Answer: 1.12 µM (active)

Question: What about the EC50 [4] of the same compound?
Answer: < 0.1 µM (inconclusive)

Question: What about the EC50 [5] of the same compound?
Answer: 48.3 µM (active)

Question: And the EC50 [6]?
Answer: 0.643 µM (active)

Question: What about the EC50 [7] of the same compound?
Answer: 0.571 µM (active)

Question: Which IC50 [8] does the source give for `O=C1Nc2c(Cl)cc(Cl)cc2/C1=C1/Nc2ccccc2C1=O` here?
Answer: 4.24 µM (active)

Question: For `Cc1cc(C(=O)CN2C(=O)C(=O)N(Cc3ccccc3)C2=O)c(C)n1Cc1ccc(F)cc1`, which EC50 [9] is on record?
Answer: > 30 µM (not active)

Question: Which IC50 [10] does the source give for `CC(=O)N1CCN(c2ccccc2NC(=O)COc2cc(C)ccc2C(C)C)CC1` here?
Answer: 36.7 µM (not active)

Question: What about the EC50 [11] of the same compound?
Answer: 3.67 µM (active)
